Assay results taken from US4659859A, “2-alkoxy-1-alkoxy phosphoryl dichlorides” (priority 1986, dated 1987).
Where “and” joins values, the source holds several entries; their conditions need not be identical. Equal entries are not always repeated. Structures can show the parent of a compound that is named as a salt.

Key:
[1] = system: M-5 ovarian carcinoma; assay: Antitumor activity vs M-5 ovarian carcinoma; parameters: species or system mice; settings: mouse, in vivo
From the text: (§1) Compounds according to formula II above are also active against transplanted tumors in mice. Table II which follows gives the results of testing (d,1)-2-ethoxy-1-[(2-trimethylaminoethoxy)phosphinyloxy]-eicosane,hydroxy inner salt, (A), against several such tumors. In the table, column 1 gives the name of the tumor, column 2 the dosage levels, column 3 toxic deaths, column 4, the percent tumor growth inhibition and column 5, the dosage schedule or regimen. Ten mice were given each dosage I.P. and a group of 20 mice used as controls.

[2] = system: C3 H mammary carcinoma; assay: Antitumor activity vs C3 H mammary carcinoma; parameters: species or system mice; settings: mouse, in vivo
From the text: as §1

[3] = system: spontaneously hypertensive rats (SHR); assay: Blood pressure and heart rate in spontaneously hypertensive rats, femoral artery cannula; assay type: in vivo, rat; settings: for Blood pressure: femoral artery cannula
From the text: (§2) The above compounds are also active in lowering the blood pressure of spontaneously hypertensive rats (SHR). […] In the table, column 1 gives the compound used, column 2 the dose level, column 3, the route of administration, column 4, number of rats, column 5, the time of blood pressure measurement, column 6, blood pressure in mm (Hg), and column 7, heart rate.
**B.P. measured by femoral artery cannula.

[4] = system: C-6 colon carcinoma; assay: Antitumor activity vs C-6 colon carcinoma in mice; assay type: in vivo; settings: daily for 10 days, 5 day delay
From the text: as §1

[5] = system: release of arachidonic acid from membrane phospholipids (rabbit neutrophils); assay: Inhibition of release of arachidonic acid from membrane phospholipids in glycogen-elicited rabbit neutrophils; assay type: cell-based; settings: A-23187 0.5 mcg/ml activation, 5 minutes pretreatment at 37° C.
Protocol: In this procedure, glycogen-elicited rabbit neutrophils are labelled with ^14 C-arachidonic acid by incubation for one hour at 37° C. and followed by treatment with the compound under test at 37° C. for 5 minutes. The cells were then activated by addition of 0.5 mcg/ml of A-23187 (an ionophore) for 5 minutes. Cellular metabolism was stopped; the membrane lipids extracted; and the extracted lipids chromatographed on TLC plates. Assays were conducted for free ^14 C-arachidonic acid and hydroxy^14 C-eicosatetraenoic acid (HETES) using a radiochromatogram scanner.

[6] = system: X-5563 plasma cell myeloma; assay: Antitumor activity vs X-5563 plasma cell myeloma in mice; assay type: in vivo; settings: daily for 10 days with 3 day delay
From the text: as §1
Table III gives the results obtained by comparing the activity of the racemate (d,1)-2-ethoxy-1-[(2-trimethylaminoethoxy)phosphinyloxy]eicosane,hydroxy inner salt (A), the L-(-)enantiomer (B) and the D-(+)enantiomer (C) versus X-5563, a plasma cell myeloma.

[7] = system: P388 leukemia; assay: Antitumor activity vs P388 leukemia; parameters: species or system mice; settings: mouse, in vivo
From the text: as §1

[8] = system: spontaneously hypertensive rats (SHR); assay: Blood pressure and heart rate in spontaneously hypertensive rats, tail cuff method; assay type: in vivo, rat; settings: for Blood pressure: tail cuff
From the text: as §2
*B.P. measured by tail cuff method.

[9] = system: CA755 mammary carcinoma; assay: Antitumor activity vs CA755 mammary carcinoma; parameters: species or system mice; settings: mouse, in vivo
From the text: as §1

[10] = system: 6C3 HED lymphosarcoma; assay: Antitumor activity vs 6C3 HED lymphosarcoma in mice; assay type: in vivo; settings: daily for 8 days after inoculation
From the text: as §1

[11] = system: X-5563 plasma cell myeloma; assay: Oral dosing vs X-5563 plasma cell myeloma; assay type: in vivo, mice
[12] = 3 mg/kg I.V., 0 hours (baseline)
[13] = 10 mg/kg I.V., 0 hours (baseline)
[14] = 30 mg/kg S.C., 0 hours (baseline), 8 rats
[15] = 50 mg/kg S.C., 0 hours (baseline), 8 rats

CCCCCCCCCCCCCCCCCCC(COP(=O)([O-])OCC[N+](C)(C)C)OCC (racemic) [Compound 3, (d,l)-2-Ethoxy-1-[(2-trimethylaminoethoxy)phosphinyloxy]eicosane, hydroxy inner salt]
activity against M-5 ovarian carcinoma [1]: no activity | activity against C3 H mammary carcinoma [2]: no activity | Heart Rate [3, 12]: 335 beats/min | Blood pressure [3, 12]: 195 mm Hg | Heart Rate ([3]; 3 mg/kg I.V., 1.0 hours): 395 beats/min | Blood pressure ([3]; 3 mg/kg I.V., 1.0 hours): 173 mm Hg | Heart Rate ([3]; 3 mg/kg I.V., .08 hours): 280 beats/min | Blood pressure ([3]; 3 mg/kg I.V., .08 hours): 105 mm Hg | Heart Rate ([3]; 3 mg/kg I.V., .25 hours): 337 beats/min | Blood pressure ([3]; 3 mg/kg I.V., .25 hours): 140 mm Hg | Heart Rate ([3]; 3 mg/kg I.V., .5 hours): 370 beats/min | Blood pressure ([3]; 3 mg/kg I.V., .5 hours): 153 mm Hg | Heart Rate [3, 13]: 345 beats/min | Blood pressure [3, 13]: 198 mm Hg | Heart Rate ([3]; 10 mg/kg I.V., 1.0 hours): 365 beats/min | Blood pressure ([3]; 10 mg/kg I.V., 1.0 hours): 154 mm Hg | Heart Rate ([3]; 10 mg/kg I.V., .08 hours): 442 beats/min | Blood pressure ([3]; 10 mg/kg I.V., .08 hours): 78 mm Hg | Heart Rate ([3]; 10 mg/kg I.V., .25 hours): 420 beats/min | Blood pressure ([3]; 10 mg/kg I.V., .25 hours): 140 mm Hg | Heart Rate ([3]; 10 mg/kg I.V., .5 hours): 395 beats/min | Blood pressure ([3]; 10 mg/kg I.V., .5 hours): 153 mm Hg | Percent inhibition of Tumor growth ([4]; 12 mg/kg I.P.): 23% | Toxic deaths ([4]; 12 mg/kg I.P.): 0/10 | Percent inhibition of Tumor growth ([4]; 17 mg/kg I.P.): 56% | Toxic deaths ([4]; 17 mg/kg I.P.): 1/10 | Percent inhibition of Tumor growth ([4]; 25 mg/kg I.P.): 24% | Toxic deaths ([4]; 25 mg/kg I.P.): 0/10 | Percent inhibition of Tumor growth ([4]; 35 mg/kg I.P.): Toxic | Toxic deaths ([4]; 35 mg/kg I.P.): 5/10 | inhibition of the release of arachidonic acid (AA) from phospholipids [5]: 69% | inhibition of the total production of free AA and HETES [5]: 97% | Percent inhibition of Tumor growth ([6]; 12 mg/kg): 37% | Toxic deaths ([6]; 12 mg/kg): 0/10 | Toxic deaths ([6]; 17 mg/kg): 0/10 | Percent inhibition of Tumor growth ([6]; 17 mg/kg, listed as (d,1)-A): 65% | Percent inhibition of Tumor growth ([6]; 17 mg/kg, listed as A): 65% and 70% | Percent inhibition of Tumor growth ([6]; 25 mg/kg, listed as (d,1)-A): 77% | Toxic deaths ([6]; 25 mg/kg, listed as (d,1)-A): 0/10 | Percent inhibition of Tumor growth ([6]; 25 mg/kg, listed as A): 77% and 86% | Toxic deaths ([6]; 25 mg/kg, listed as A): 0/10 and 2/10 | Percent inhibition of Tumor growth ([6]; 35 mg/kg, listed as (d,1)-A): Toxic | Toxic deaths ([6]; 35 mg/kg, listed as (d,1)-A): 4/10 | Percent inhibition of Tumor growth ([6]; 35 mg/kg, listed as A): toxic | Toxic deaths ([6]; 35 mg/kg, listed as A): 4/10 and 5/10 | Toxic deaths ([6]; 50 mg/kg): 10/10 | Percent inhibition of Tumor growth ([6]; 50 mg/kg, listed as (d,1)-A): Toxic | Percent inhibition of Tumor growth ([6]; 50 mg/kg, listed as A): toxic | Percent inhibition of Tumor growth ([6]; 70 mg/kg): toxic | Toxic deaths ([6]; 70 mg/kg): 10/10 | activity against P388 leukemia [7]: no activity | Blood pressure ([8]; 5 mg/kg S.C., 0 hours (baseline), 5 rats): 188 mm Hg | Blood pressure ([8]; 5 mg/kg S.C., 1 hour, 5 rats): 177 mm Hg | Blood pressure ([8]; 5 mg/kg S.C., 2 hours, 5 rats): 159 mm Hg | Blood pressure ([8]; 5 mg/kg S.C., 3 hours, 5 rats): 155 mm Hg | Blood pressure ([8]; 5 mg/kg S.C., 4 hours, 5 rats): 154 mm Hg | Blood pressure ([8]; 5 mg/kg S.C., 5 hours, 5 rats): 156 mm Hg | Heart Rate [8, 14]: 335 beats/min | Blood pressure [8, 14]: 188 mm Hg | Heart Rate ([8]; 30 mg/kg S.C., 1 hour, 8 rats): 328 beats/min | Blood pressure ([8]; 30 mg/kg S.C., 1 hour, 8 rats): 177 mm Hg | Heart Rate ([8]; 30 mg/kg S.C., 2 hours, 8 rats): 349 beats/min | Blood pressure ([8]; 30 mg/kg S.C., 2 hours, 8 rats): 151 mm Hg | Heart Rate ([8]; 30 mg/kg S.C., 3 hours, 8 rats): 346 beats/min | Blood pressure ([8]; 30 mg/kg S.C., 3 hours, 8 rats): 147 mm Hg | Heart Rate ([8]; 30 mg/kg S.C., 4 hours, 8 rats): 347 beats/min | Blood pressure ([8]; 30 mg/kg S.C., 4 hours, 8 rats): 156 mm Hg | Heart Rate ([8]; 30 mg/kg S.C., 5 hours, 8 rats): 341 beats/min | Blood pressure ([8]; 30 mg/kg S.C., 5 hours, 8 rats): 151 mm Hg | Heart Rate [8, 15]: 345 beats/min | Blood pressure [8, 15]: 190 mm Hg | Heart Rate ([8]; 50 mg/kg S.C., 1 hour, 8 rats): 352 beats/min | Blood pressure ([8]; 50 mg/kg S.C., 1 hour, 8 rats): 177 mm Hg | Heart Rate ([8]; 50 mg/kg S.C., 2 hours, 8 rats): 355 beats/min | Blood pressure ([8]; 50 mg/kg S.C., 2 hours, 8 rats): 149 mm Hg | Heart Rate ([8]; 50 mg/kg S.C., 3 hours, 8 rats): 367 beats/min | Blood pressure ([8]; 50 mg/kg S.C., 3 hours, 8 rats): 143 mm Hg | Heart Rate ([8]; 50 mg/kg S.C., 4 hours, 8 rats): 357 beats/min | Blood pressure ([8]; 50 mg/kg S.C., 4 hours, 8 rats): 139 mm Hg | Heart Rate ([8]; 50 mg/kg S.C., 5 hours, 8 rats): 359 beats/min | Blood pressure ([8]; 50 mg/kg S.C., 5 hours, 8 rats): 129 mm Hg | hypotensive effects in SHR (in words) ([8]; administered subcutaneously, various dose levels): hypotensive effects | activity against CA755 mammary carcinoma [9]: no activity | Percent inhibition of Tumor growth ([10]; 12 mg/kg I.P.): 10% | Toxic deaths ([10]; 12 mg/kg I.P.): 0/10 | Percent inhibition of Tumor growth ([10]; 17 mg/kg I.P.): 15% | Toxic deaths ([10]; 17 mg/kg I.P.): 0/10 | Percent inhibition of Tumor growth ([10]; 25 mg/kg I.P.): 48% | Toxic deaths ([10]; 25 mg/kg I.P.): 0/10 | Percent inhibition of Tumor growth ([10]; 35 mg/kg I.P.): 85% | Toxic deaths ([10]; 35 mg/kg I.P.): 0/10 | inhibition of tumor growth ([11]; 25 mg/kg orally daily for 10 days after inoculation): 10% | inhibition of tumor growth ([11]; 35 mg/kg orally daily for 10 days after inoculation): 47% | inhibition of tumor growth ([11]; 50 mg/kg orally daily for 10 days after inoculation): 56% | toxicity ([11]; 50, 35 and 25 mg/kg orally daily for 10 days): minimal toxicity | toxicity ([11]; 50 and 70 mg/kg dose levels orally): toxic
